According to patent US8802597B2, “Herbicidal pyrimidines” (E I du Pont de Nemours and Company, priority 2003, dated 2014):

Experiments:
Format in all cases: in vivo
[1] = tested on: chickweed (Stellaria media); assay: Test C postemergence; conditions: for Chickweed plant response rating: scale 0 to 100 (0 no effect, 100 complete control)
Procedure, shortened: (§1)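 Seeds sown and sprayed preemergence with test compound in non-phytotoxic solvent containing surfactant; postemergence sprays, same formulation, went onto plants 2 to 18 cm tall (1- to 4-leaf stage). Plants held in greenhouse 12 to 14 days, then visually rated against untreated controls on a 0–100 scale (0 no effect, 100 complete control).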

[2] = tested on: morningglory (Ipomoea coccinea); assay: Test C pre/postemergence; conditions: for Plant response rating (scale of 0 to 100), Morningglory / Morningglory plant response rating: Postemergence; for Morningglory plant response rating: scale 0 to 100 (0 no effect, 100 complete control); for Plant response rating, Morningglory: Preemergence
Procedure, shortened: as §1

[3] = tested on: woolly cupgrass (Eriochloa villosa); assay: Test C pre/postemergence; conditions: for Plant response rating (scale of 0 to 100), Cupgrass, Woolly / Cupgrass, Woolly plant response rating: Postemergence; for Cupgrass, Woolly plant response rating: scale 0 to 100 (0 no effect, 100 complete control); for Plant response rating, Cupgrass, Woolly: Preemergence
Procedure, shortened: as §1

kochia (Kochia scoparia) = assay: Test C pre/postemergence; conditions: for Plant response rating (scale of 0 to 100), Kochia / Kochia plant response rating: Postemergence; for Kochia plant response rating: scale 0 to 100 (0 no effect, 100 complete control); for Plant response rating, Kochia: Preemergence
Procedure, shortened: as §1

[4] = tested on: yellow nutsedge (Cyperus esculentus); assay: Test C pre/postemergence; conditions: for Plant response rating (scale of 0 to 100), Nutsedge, Yellow / Nutsedge, Yellow plant response rating: Postemergence; for Nutsedge, Yellow plant response rating: scale 0 to 100 (0 no effect, 100 complete control); for Plant response rating, Nutsedge, Yellow: Preemergence
Procedure, shortened: as §1

soybean (Glycine max) = assay: Test C pre/postemergence; conditions: for Plant response rating (scale of 0 to 100), Soybean / Soybean plant response rating: Postemergence; for Soybean plant response rating: scale 0 to 100 (0 no effect, 100 complete control); for Plant response rating, Soybean: Preemergence
Procedure, shortened: as §1

[5] = tested on: giant foxtail (Setaria faberii); assay: Test C pre/postemergence; conditions: for Plant response rating (scale of 0 to 100), Foxtail, Giant / Foxtail, Giant plant response rating: Postemergence; for Foxtail, Giant plant response rating: scale 0 to 100 (0 no effect, 100 complete control); for Plant response rating, Foxtail, Giant: Preemergence
Procedure, shortened: as §1

[6] = tested on: Surinam grass (Brachiaria decumbens); assay: Test C pre/postemergence; conditions: for Plant response rating (scale of 0 to 100), Surinam Grass / Surinam Grass plant response rating: Postemergence; for Surinam Grass plant response rating: scale 0 to 100 (0 no effect, 100 complete control); for Plant response rating, Surinam Grass: Preemergence
Procedure, shortened: as §1

[7] = tested on: common ragweed (Ambrosia elatior); assay: Test C pre/postemergence; conditions: for Plant response rating (scale of 0 to 100), Ragweed / Ragweed plant response rating: Postemergence; for Ragweed plant response rating: scale 0 to 100 (0 no effect, 100 complete control); for Plant response rating, Ragweed: Preemergence
Procedure, shortened: as §1

[8] = tested on: pigweed (Amaranthus retroflexus); assay: Test C pre/postemergence; conditions: for Plant response rating (scale of 0 to 100), Pigweed / Pigweed plant response rating: Postemergence; for Pigweed plant response rating: scale 0 to 100 (0 no effect, 100 complete control); for Plant response rating, Pigweed: Preemergence
Procedure, shortened: as §1

[9] = tested on: johnsongrass (Sorghum halepense); assay: Test C pre/postemergence; conditions: for Johnsongrass plant response rating: Postemergence, scale 0 to 100 (0 no effect, 100 complete control); for Plant response rating, Johnsongrass: Preemergence
Procedure, shortened: as §1

[10] = tested on: common (oilseed) sunflower (Helianthus annuus); assay: Test C pre/postemergence; conditions: Preemergence
Procedure, shortened: as §1

[11] = 16 g ai/ha, scale 0 to 100, 0 no effect, 100 complete control
[12] = 31 g ai/ha, scale 0 to 100, 0 no effect, 100 complete control
[13] = 62 g ai/ha, scale 0 to 100, 0 no effect, 100 complete control

CCOC(=O)C(OC(C)=O)c1nc(C2CC2)nc(N)c1Br (stereo not drawn) [Compound 47]
Plant response rating (scale of 0 to 100), Chickweed ([1]; 16 g ai/ha): 0
Plant response rating (scale of 0 to 100), Chickweed ([1]; 31 g ai/ha): 0
Chickweed plant response rating ([1]; 62 g ai/ha): 0
Chickweed plant response rating ([1]; 125 g ai/ha): 0
Plant response rating (scale of 0 to 100), Morningglory ([2]; 16 g ai/ha): 20
Plant response rating (scale of 0 to 100), Morningglory ([2]; 31 g ai/ha): 35
Morningglory plant response rating ([2]; 62 g ai/ha): 40
Morningglory plant response rating ([2]; 125 g ai/ha): 65
Plant response rating, Morningglory [2, 11]: 0
Plant response rating, Morningglory [2, 12]: 0
Plant response rating, Morningglory [2, 13]: 70
Plant response rating, Morningglory ([2]; 125 g ai/ha, scale 0 to 100): 100
Plant response rating (scale of 0 to 100), Cupgrass, Woolly ([3]; 16 g ai/ha): 0
Plant response rating (scale of 0 to 100), Cupgrass, Woolly ([3]; 31 g ai/ha): 0
Cupgrass, Woolly plant response rating ([3]; 62 g ai/ha): 0
Cupgrass, Woolly plant response rating ([3]; 125 g ai/ha): 0
Plant response rating, Cupgrass, Woolly [3, 11]: 0
Plant response rating, Cupgrass, Woolly [3, 12]: 0
Plant response rating, Cupgrass, Woolly [3, 13]: 0
Plant response rating, Cupgrass, Woolly ([3]; 125 g ai/ha, scale 0 to 100): 0
Plant response rating (scale of 0 to 100), Kochia (kochia (Kochia scoparia); 16 g ai/ha): 0
Plant response rating (scale of 0 to 100), Kochia (kochia (Kochia scoparia); 31 g ai/ha): 0
Kochia plant response rating (kochia (Kochia scoparia); 62 g ai/ha): 20
Kochia plant response rating (kochia (Kochia scoparia); 125 g ai/ha): 100
Plant response rating, Kochia (kochia (Kochia scoparia); [11]): 0
Plant response rating, Kochia (kochia (Kochia scoparia); [13]): 0
Plant response rating, Kochia (kochia (Kochia scoparia); 125 g ai/ha, scale 0 to 100): 100
Plant response rating (scale of 0 to 100), Nutsedge, Yellow ([4]; 16 g ai/ha): 0
Plant response rating (scale of 0 to 100), Nutsedge, Yellow ([4]; 31 g ai/ha): 0
Nutsedge, Yellow plant response rating ([4]; 62 g ai/ha): 0
Nutsedge, Yellow plant response rating ([4]; 125 g ai/ha): 0
Plant response rating, Nutsedge, Yellow [4, 11]: 0
Plant response rating, Nutsedge, Yellow [4, 12]: 0
Plant response rating, Nutsedge, Yellow [4, 13]: 0
Plant response rating, Nutsedge, Yellow ([4]; 125 g ai/ha, scale 0 to 100): 0
Plant response rating (scale of 0 to 100), Soybean (soybean (Glycine max); 16 g ai/ha): 20
Plant response rating (scale of 0 to 100), Soybean (soybean (Glycine max); 31 g ai/ha): 40
Soybean plant response rating (soybean (Glycine max); 62 g ai/ha): 65
Soybean plant response rating (soybean (Glycine max); 125 g ai/ha): 75
Plant response rating, Soybean (soybean (Glycine max); [11]): 0
Plant response rating, Soybean (soybean (Glycine max); [12]): 0
Plant response rating, Soybean (soybean (Glycine max); [13]): 0
Plant response rating, Soybean (soybean (Glycine max); 125 g ai/ha, scale 0 to 100): 0
Plant response rating (scale of 0 to 100), Foxtail, Giant ([5]; 16 g ai/ha): 0
Plant response rating (scale of 0 to 100), Foxtail, Giant ([5]; 31 g ai/ha): 0
Foxtail, Giant plant response rating ([5]; 62 g ai/ha): 0
Foxtail, Giant plant response rating ([5]; 125 g ai/ha): 0
Plant response rating, Foxtail, Giant [5, 11]: 0
Plant response rating, Foxtail, Giant [5, 12]: 0
Plant response rating, Foxtail, Giant [5, 13]: 0
Plant response rating, Foxtail, Giant ([5]; 125 g ai/ha, scale 0 to 100): 20
Plant response rating (scale of 0 to 100), Surinam Grass ([6]; 16 g ai/ha): 0
Plant response rating (scale of 0 to 100), Surinam Grass ([6]; 31 g ai/ha): 0
Surinam Grass plant response rating ([6]; 62 g ai/ha): 0
Surinam Grass plant response rating ([6]; 125 g ai/ha): 20
Plant response rating, Surinam Grass [6, 11]: 0
Plant response rating, Surinam Grass [6, 12]: 0
Plant response rating, Surinam Grass [6, 13]: 0
Plant response rating, Surinam Grass ([6]; 125 g ai/ha, scale 0 to 100): 0
Plant response rating (scale of 0 to 100), Ragweed ([7]; 16 g ai/ha): 0
Plant response rating (scale of 0 to 100), Ragweed ([7]; 31 g ai/ha): 0
Ragweed plant response rating ([7]; 62 g ai/ha): 40
Ragweed plant response rating ([7]; 125 g ai/ha): 80
Plant response rating, Ragweed [7, 11]: 0
Plant response rating, Ragweed [7, 13]: 45
Plant response rating, Ragweed ([7]; 125 g ai/ha, scale 0 to 100): 65
Plant response rating (scale of 0 to 100), Pigweed ([8]; 16 g ai/ha): 0
Plant response rating (scale of 0 to 100), Pigweed ([8]; 31 g ai/ha): 15
Pigweed plant response rating ([8]; 62 g ai/ha): 45
Pigweed plant response rating ([8]; 125 g ai/ha): 70
Plant response rating, Pigweed [8, 11]: 0
Plant response rating, Pigweed [8, 12]: 80
Plant response rating, Pigweed [8, 13]: 85
Plant response rating, Pigweed ([8]; 125 g ai/ha, scale 0 to 100): 85
Johnsongrass plant response rating ([9]; 62 g ai/ha): 0
Johnsongrass plant response rating ([9]; 125 g ai/ha): 0
Plant response rating, Johnsongrass [9, 11]: 0
Plant response rating, Johnsongrass [9, 12]: 0
Plant response rating, Johnsongrass [9, 13]: 0
Plant response rating, Johnsongrass ([9]; 125 g ai/ha, scale 0 to 100): 0
Plant response rating, Sunflower [10, 11]: 0
Plant response rating, Sunflower [10, 12]: 0
Plant response rating, Sunflower [10, 13]: 20
Plant response rating, Sunflower ([10]; 125 g ai/ha, scale 0 to 100): 100
